Results from patent US20260272923A1, “NONSENSE MEDIATED DECAY INHIBITOR COMPOUNDS” (The Johns Hopkins University, priority 2023, published 2026).

Key:
[1] = tested on: nonsense mediated decay (NMD); assay: Targeted RNA-sequencing of subcutaneous H358 and LS180 tumors in nude mice; type: in vivo; settings: IP dose at 30 mg/kg, H358 or LS180 tumors, 16 hours after treatment
Procedure: All animal work was done under the supervision and guidance of Johns Hopkins Animal Care and Use committee with appropriate protocols and humane standards of care. LS180 and H358 cell lines (ATCC) were placed subcutaneously in the back of nude mice (Jackson Laboratories). The compound of Formula III was solubilized in 10% cremaphor (Sigma Aldrich) with 2% glycerol (Sigma Aldrich) and sterilized by 0.22 uM filter (Thermo Scientific). After tumors reached palpable size, about 7 days, mice were treated with […] of the compound of Formula III by IP injection. 16 hours after treatment, mice were sacked, and tumors were harvested and stored in RNA Later (Thermo Scientific). RNA was harvested using an RNeasy kit (Qiagen) and Qiashredder (Qiagen). Reverse transcription was performed per manufacturer's instructions (High Capacity cDNA kit from Applied Biosciences). Primers specific for the indel mutation site for 3 genes were used, and at least one primer from each set overlapped an exon-exon boundary. […] After PCR amplification, products were barcoded with an 8 bp sequence so the well it originated in could be determined, and sequenced on a Miseq (Illumina). Transcripts from the wild type and mutant allele were counted to determine abundance of each with treatment or without (FIGS. 9A-9B).

mutant protein (TP53) [2] = assay: TP53 western blot in H358, LS180 and RPE TP53 KO clone 224; type: cell-based; settings: 5 uM, 16 hours
Procedure: H358 (negative control), LSl80, and RPE TP53 KO line clone 224 were plated (at 1e5 cells per well) into 6 well plates. Wells were treated with 5 uM of the compound of Formula III for 16 hours. Cells were harvested, pelleted and washed with PBS. Cells were lysed using RIPA buffer (Thermo Scientific) and then run through a Qiashredder column (Qiagen) following manufacturer's instructions. Protein was quantified using a BCA Kit (Pierce). 50 ug of protein was loaded into 5-15% polyacrylamide gels (Biorad) and run for 30 min at 200V. Protein was transferred to a nitrocellulose membrane following manufacturer's recommendations and stained with a TP53 protein (clone DO-1 from Cell Signaling) overnight in 3% milk with TBS-T. HRP conjugated secondary antibody was used for detection and imaged on a gel imager (Bio Rad) (FIG. 8B).

[3] = tested on: nonsense mediated decay (NMD); assay: Targeted RNA-sequencing of indel genes in LS180 cells; type: cell-based; settings: serial dilution starting at 5 uM, 16 hrs
Procedure: LS180 Cells were plated into 96 well plates at 1e4 cells/well. The compound of Formula III was solubilized in DMSO and added in a serial dilution starting at 5 uM and diluting 1:2. Cells were incubated for 16 hrs at 37 C and 5% CO2. RNA was harvested using an RNeasy kit (Qiagen). Reverse transcription was performed per manufacturer's instructions (High Capacity cDNA kit from Applied Biosciences). Primers specific for the indel mutation site for 3 genes were used, and at least one primer from each set overlapped an exon-exon boundary. RNF43 is a common SNP that is heterozygous in LS180 and was used as a negative control. After PCR amplification, products were barcoded with an 8 bp sequence so the well it originated in could be determined, and sequenced on a Miseq (Illumina). Transcripts from the wild type and mutant allele were counted to determine abundance of each with treatment or without (FIG. 8A).

mutant protein (TP53) [4] = assay: TP53 western blot in TP53 KO lines; type: cell-based; settings: 5 uM, 16 hours
Procedure: TP53 KO lines were created and plated (at 1e5 cells per well) into 6 well plates. Wells were treated with 5 uM of the compound of Formula II for 16 hours. Cells were harvested, pelleted and washed with PBS. Cells were lysed using RIPA buffer (Thermo Scientific) and then run through a Qiashredder column (Qiagen) following manufacturer's instructions. Protein was quantified using a BCA Kit (Pierce). 50 ug of protein was loaded into 5-15% polyacrylamide gels (Biorad) and run for 30 min at 200V. Protein was transferred to a nitrocellulose membrane following manufacturer's recommendations and stained with a TP53 protein (clone DO-1 from Cell Signaling) overnight in 3% milk with TBS-T. HRP conjugated secondary antibody was used for detection and imaged on a gel imager (Bio Rad) (FIG. 7B).

[5] = tested on: nonsense mediated decay (NMD); assay: Real time PCR of STAG2 transcripts in RPE STAG2 knockout cells; type: cell-based; settings: serial dilution starting at 10 uM, 16 hrs
Procedure: RPE STAG2 knockout cells were created and plated into 96 well plates at 1e4 cells/well. The compound of Formula II was solubilized in DMSO and added in a serial dilution starting at 10 uM and diluting 1:2. Cells were incubated for 16 hrs at 37 C and 5% CO2. RNA was harvested using an RNeasy kit (Qiagen). Real time PCR was performed using primers specific for STAG2 transcripts and at least one primer overlapped an exon-exon boundary (FIG. 7A).

phosphorylated UPF1 = assay: Phospho-UPF1 specific western blot; type: cell-based; settings: FIG. 3D
Procedure: (§1) Analyzing a wider set of 21 NMD sensitive genes from the RNA-Seq analysis in LS180 confirmed that LY3023414 and SMG1 specific inhibitor increase the same 18 genes with a greater than 80% re-expression rate, in both cell lines. […] As SMG1 inhibition is an off target effect for LY3023414, the concentrations used in this study may result in inhibition of a number of different kinases.
(§2) To confirm disruption of downstream signaling of SMG1, a western blot was performed with phosphorylation specific antibodies for UPF1.

[6] = tested on: NMD targeted mutant protein (EXOC1, SPTAN1); assay: Western blot of mutant proteins in NCI-H358 and LS180 cells; type: cell-based; settings: NCI-H358 cells, 24 hours
From the text: (§3) It was next sought to evaluate whether LY3023414 could relieve repression of indel containing transcripts in cancer cells. The microsatellite stable NCI-H358 and microsatellite instable LS180 lung and colorectal cancer cell lines were chosen respectively. Nearly 40% of heterozygous indel and 25% of nonsense single base-pair mutation containing genes show increased expression of their mutant allele when treated with LY3023414 when evaluated by RNA sequencing (FIG. 2A). […] Heterozygous single nucleotide polymorphism (SNP) Ring Finger Protein 43 (RNF43) and drosha ribonuclease […] (DROSHA) served as controls, and allele ratios remain unchanged with treatment (FIG. 2B). To investigate for changes at the protein level, NCI-H358 cells were treated for 24 hours with either LY3023414 or DMSO.
as §1, §2

[7] = tested on: nonsense mediated decay (NMD); assay: RNA sequencing of NCI-H358 and LS180 cancer cell lines; type: cell-based
From the text: as §3, §1

[8] = tested on: NMD sensitive transcripts (TP53β); assay: Quantitative real time PCR of TP53α and TP53β transcripts in parental RPE1 and RPTec cells; type: cell-based
Procedure: (§4) To confirm generality of the NMD HTS hits, validations were performed on isogenic STAG2 and TP53 knockouts in a second cell line background, RPtec (renal) cells. Transcript recovery was first evaluated in STAG2 and TP53 isogenic knockout clones from this second background. […] A TP53 knockout cell line was then selected with a homozygous mutation predicted to generate a truncated TP53 protein readily identifiable by established TP53 antibodies (DO-1). […] Using cell lines where the TP530 isoform transcripts are expected to be intact, an increase in the TP53$ isoform was also observed in cell lines treated with the NMD inhibitors (FIG. 1E middle and left column). […] Based on strong induction of predicted mutant truncated protein across multiple isogenic cell lines LY3023414 was selected as the NMD inhibiting compound of interest. LY3023414 was created as a phosphatidylinositol 3-kinase (PI3K) inhibitor with activity against AKT Serine/Threonine Kinase 1 (AKT1) and Target of Rapamycin (mTOR).

[9] = tested on: truncated mutant TP53 protein; assay: TP53 western blot in TP53 knockout clones; type: cell-based; settings: for expression of truncated mutant TP53 protein: TP53 knockout cell line with homozygous mutation, DO-1 antibody
Procedure: as §4

[10] = tested on: nonsense mediated decay (NMD); assay: NCI-H358 and LS180 xenograft tumors in NOD-SCID mice, mutant RNA transcripts and tolerability; type: in vivo
[11] = tested on: nonsense mediated decay (NMD); assay: Targeted RNA sequencing of heterozygous indel mutations in NCI-H358 and LS180 cells; type: cell-based; settings: NCI-H358 and LS180, in vitro
From the text: as §3, §1, §2

[12] = tested on: nonsense mediated decay (NMD); assay: Ratiometric mutant/wild type transcript sequencing assay (HTS) in RPE1 STAG2 and TP53 isogenic knockout cell lines; type: cell-based
From the text: An experimental system was generated to identify and evaluate NMD inhibitors based on a panel of isogenic cell lines developed to assess tumor suppressor gene function and synthetic lethality. Briefly, common tumor suppressor genes were individually knocked out in multiple non-cancerous cell lines using the Clustered Regularly Interspaced Short Palindromic Repeats (CRISPR)-Cas9 system. As part of this effort, two genes displaying strong activation of NMD in response to indel creation were identified, Stromal Antigen 2 (STAG2) and Tumor Protein p53 (TP53). The absence of detectable protein in these knock out cell lines was verified via western blots against STAG2 and immunohistochemistry for TP53. Further, active RNA decay of the mutant transcripts was identified through whole transcriptome RNA-sequencing. […]
A high throughput screen (HTS) was then performed by treating the isogenic cell line mixture with the SelleckChem Bioactive library, consisting of 2,658 small molecules and natural products (FIG. 1A). Total RNA was harvested from cells 16 hours post treatment and the gRNA target regions were amplified using a panel of primers (one for TP53 and one for STAG2) and mutant and wild type transcript abundance was quantified using next generation sequencing. […]

[13] = tested on: mutant form of TP53 protein; assay: Western blot against TP53 in NCI-H716 and NCI-H2228 cell lines

Structure (SMILES): CNC(=O)Nc1ccc(-c2cc(-c3ccnc(Nc4ccc(Cl)c(S(=O)(=O)N5CCN(C)CC5)c4)n3)ccn2)cc1 [compound of Formula III]
- in vivo NMD inhibition (re-expression of NMD downregulated genes) [1]: in vivo NMD inhibition activity
- mutant protein re-expression (mutant protein (TP53) [2]): re-expresses mutant protein in vitro
- mutant RNA re-expression [3]: re-expresses mutant RNA in vitro

Structure (SMILES): CNC(=O)Nc1ccc(-c2cc(-c3ccnc(Nc4ccc(Cl)c(S(=O)(=O)N(CCO)CCO)c4)n3)ccn2)cc1 [compound of Formula II]
- mutant protein re-expression (mutant protein (TP53) [4]): re-expresses mutant protein
- mutant RNA re-expression [5]: re-expresses mutant RNA

Structure (SMILES): CO[C@@H](C)Cn1c(=O)n(C)c2cnc3ccc(-c4cncc(C(C)(C)O)c4)cc3c21 [LY3023414]
- phospho-UPF1 levels (phosphorylated UPF1): increases the levels of phospho-UPF
- truncated mutant EXOC1 and SPTAN1 protein expression [6]: truncated mutant protein only expressed after treatment with LY3023414
- heterozygous indel containing genes with increased expression of mutant allele [7]: ~40%
- nonsense single base-pair mutation containing genes with increased expression of mutant allele [7]: 25%
- TP53α and TP53β transcript levels [8]: only the NMD regulated (TP53β) transcript levels increased with treatment
- induction of TP53β and mutant TP53 (western blot) ([9]; RPE TP53 clone 223, RPTec TP53 KO 588, full-length not induced): prominently induced
- expression of truncated mutant TP53 protein [9]: robustly induced expression of the truncated mutant TP53 protein
- autopsies of treated animals ([10]; mice treated with LY3023414): no abnormalities
- weight loss ([10]; mice treated with LY3023414): severe weight loss
- expression of mutant RNA transcripts in tumors ([10]; single dose by oral gavage, tumors harvested over 24 hours): increase in the expression of mutant RNA transcripts
- mutant allele RNA expression [11]: significant increased expression of the mutant allele

Structure (SMILES): CC[C@H]1CN2CCc3cc(OC)c(OC)cc3[C@@H]2C[C@@H]1C[C@H]1NCCc2cc(OC)c(OC)cc21 [emetine]
- recovery of mutant RNA transcript expression ([12]; RPE1 STAG2/TP53 knockout cell line mixture): 6 fold

Structure (SMILES): O=c1[nH]cc(F)c(=O)[nH]1 [5-fluorouracil]
- TP53 protein levels [13]: no effect on TP53 levels

Structure (SMILES): COc1ccc(C[C@H]2NC[C@H](O)[C@H]2OC(C)=O)cc1 [Anisomycin]
- mutant transcript fraction ([12]; 16 hours post treatment, in all three cell lines, 0.5 = 4 standard deviations above DMSO controls): above 0.5

Structure (SMILES): O=C(CC1NCCCC1O)Cn1cnc2cc(Br)c(Cl)cc2c1=O (centres unmarked) [halofuginone]
- expression of truncated mutant TP53 protein [9]: robustly induced expression of the truncated mutant TP53 protein
